In article PMC9737184, “In Vitro Study of Cytotoxic Mechanisms of Alkylphospholipids and Alkyltriazoles in Acute Lymphoblastic Leukemia Models” (Molecules, 2022):

What was measured:
[1] = molecular target: T1, cathepsin B (Homo sapiens, UniProt P07858); experiment: Cathepsin B inhibition, Z-FR-AMC fluorogenic assay (IC50); type: biochemical; settings: Z-FR-AMC 50 µM, pH 5.5, 37 °C
Method: (§1) Cathepsin L was assayed in a reaction buffer of 100 mM sodium acetate, containing 100 mM NaCl, 5 mM EDTA and 20% glycerol at pH 5.5. Cathepsin B was assayed in the same buffer supplemented with 0.01% Triton X-100. The enzymes were pre-incubated in the presence of 3 mM DTT for 5 min at 37 °C in a 1 mL final volume with constant stirring. The enzyme activities were monitored using the fluorogenic probe Z-FR-AMC (50 µM and 5 µM for cathepsin B and L, respectively), and the fluorescence was monitored by spectrofluorometry using the fluorometer RF6000 (Shimadzu, Tokyo, Japan) set to λEx = 360 nm and λEm = 480 nm. […] The data were analyzed by Grafit 5.0.13 software using Equation (1). (1) y=100%/1+(x/IC50)^S

[2] = system: Jurkat and CCRF-CEM lineages; experiment: Annexin V-FITC/PI cytotoxicity, EC50 span over ALL lineages (discussion); type: cell-based; settings: Homo sapiens
Method: (§2) Figure 2 Effects of the alkyltriazole compounds C9 and C21 on the viability of different myeloblastic and lymphoblastic leukemia lineages. Lineages cells at 2 × 10^5 cells/mL were used. Cells were exposed to concentrations ranging from 0 to 150 µM for 24 h, and cell viability was assessed by annexin V-FITC/PI staining and flow cytometric analysis. (A) Chemical structure of C9, with a hydroxyl group and an iodine atom as substituents.
(§3) Human leukemia cell lines (Kasumi-1, K-562, ARH-77, Jurkat and CCRF-CEM, see Table S2) were purchased from American Type Culture Collection-ATCC (Manassas, VA, USA). The cells were maintained in RPMI 1640 (Sigma-Aldrich, Burlington, MA, USA) culture medium, supplemented with 10% fetal bovine serum, 100 U/mL penicillin (Sigma-Aldrich, Burlington, MA, USA) and 100 µg/mL streptomycin (Sigma-Aldrich, Burlington, MA, USA). Cells were cultured in a humidified atmosphere at 37 °C and 5% CO2.
Leukemia or PBMC cells (2 × 10^5 cells/mL) were incubated for 24 h in both the absence and presence of compounds. PBMCs were also treated with vinblastine (Sigma-Aldrich, Burlington, MA, USA) for 24 h as the positive control. […]

[3] = system: Jurkat (acute lymphoblastic leukemia); experiment: Annexin V-FITC/PI cytotoxicity, concentration-response; type: cell-based; settings: Homo sapiens, Jurkat cells, 24 h
Method: as §2, §3
(§4) Leukemia or PBMC cells (2 × 10^5 cells/mL) were incubated for 24 h in both the absence and presence of compounds. PBMCs were also treated with vinblastine (Sigma-Aldrich, Burlington, MA, USA) for 24 h as the positive control. Then, the cells were centrifuged and resuspended in binding buffer (0.01 M HEPES, pH 7.4, containing 0.14 M NaCl, and 2.5 mM CaCl2) and incubated at room temperature with annexin V-FITC (BD Biosciences, San Jose, CA, USA) and 5 µg/mL PI (Sigma-Aldrich, Burlington, MA, USA) for 20 min. Sample analysis was performed using an Accuri C6 flow cytometer (BD Biosciences, San Jose, CA, USA) with the acquisition value of 10,000 events.

[4] = system: CCRF-CEM (acute lymphoblastic leukemia); experiment: as above; type: cell-based; settings: Homo sapiens, CCRF-CEM cells, 24 h
Method: as §2, §3, §4

[5] = molecular target: T2, cathepsin L (Homo sapiens, UniProt P07711); experiment: Cathepsin L inhibition, Z-FR-AMC fluorogenic assay (IC50); type: biochemical; settings: Z-FR-AMC 5 µM, pH 5.5, 37 °C
Method: as §1

[6] = system: PARP-1 cleavage in CCRF-CEM cells; experiment: Cleaved PARP by flow cytometry; type: cell-based, human; settings: 12 h of treatment, EC50 of the compounds
Method: (§5) Jurkat and CCRF-CEM cells (2 × 10^5 cells/mL) were treated with C9 and C21 compounds for 12 h. Then, the cells were centrifuged, washed, fixed with 2% paraformaldehyde in PBS for 30 min and permeabilized with 0.01% saponin in PBS for 15 min at room temperature. Afterwards, the cells were incubated for 1 h at 37 °C with anti-cleaved-caspase 3-FITC monoclonal antibodies (Cell Signaling, Danvers, MA, USA) or mouse anti-cleaved PARP-PE/CF594 (Asp^214) antibodies (BD Biosciences, San Jose CA, USA). After incubation, the fluorescence was analyzed using an Accuri C6 flow cytometer (BD Biosciences, San Jose, CA, USA). A total of 10,000 events were acquired per sample.

[7] = system: PARP-1 cleavage in Jurkat cells; experiment: Cleaved PARP by flow cytometry; type: cell-based, human; settings: 12 h of treatment, EC50 of the compounds
Method: as §5

[8] = molecular target: T1, cathepsin B; experiment: Cathepsin B inhibition kinetics and mechanism; type: biochemical; settings: Cat B; for Mec. (mechanism of inhibition): SLNC = simple linear non-competitive, SLC = simple linear competitive
Method: (§6) For every kinetic measurement, the compounds were pre-incubated with each enzyme for 10 min before adding the substrate. All kinetic assays were carried out in duplicate. Inhibition constants were determined using different equations, depending on the inhibition mechanism. The assumed KM values of cathepsin B and cathepsin L for Z-FR-AMC were 23.4 µM and 2 µM, respectively, as previously described. The data of the activity rate and substrate concentration generated rectangular hyperbolic profiles that were linearized using the Lineweaver–Burk/double reciprocal plot. The replot profiles of the slope vs inhibitor and intercept vs inhibitor provided the Ki and αKi parameters, respectively.

[9] = system: PBMCs; experiment: Annexin V-FITC/PI cytotoxicity on healthy control cells; type: cell-based, human; settings: for cytotoxicity to PBMCs compared with vinblastine: 24 h of exposure at different concentrations; for sensitivity of PBMCs compared with the tumor lineages: healthy control cells, 24 h
Source text: Blood was collected using EDTA Vacuum Blood Collection Tubes. Peripheral blood mononuclear cells were isolated from three normal healthy individuals after they provided informed consent and after prior approval by the local Ethics Committee of University of Mogi das Cruzes (ethical appreciation number 72986617.3.0000.5497, and approval number 2.236.397). The fraction of mononuclear cells was separated from the blood by centrifugation with Ficoll-Histopaque-1077 (density 1.077 g/mL, Sigma-Aldrich, Burlington, MA, USA) at 400× g for 30 min. Mononuclear cells were maintained in 100 U/mL penicillin and […] streptomycin in an incubator with a humidified atmosphere at 37 °C and 5% CO2.
as §4, with “events. […]” for “events.”
Figure S3. Concentration-response curve of cytotoxicity of compounds C9, C21 and vinblastine on PBMCs. PBMCs cells were cultured (2x10^5 cells/mL) on 96-well microplates. The cells were treated with compounds C9 ([…]) and C21 (≤), and vinblastine ([…]) (Sigma-Aldrich, Germany) for 24 h. After, the cells were labeled with Annexin V-FITC and 5 μg/mL PI. The results were expressed as percent-age. The data are the mean ± SEM of 3 experiments performed in duplicate.

[10] = system: ARH-77 (plasma cell leukemia); experiment: Annexin V-FITC/PI cytotoxicity, concentration-response; type: cell-based; settings: Homo sapiens, ARH-77 cells, 24 h
Method: as §2, §3, §4

[11] = system: Kasumi-1 (acute myeloblastic leukemia); experiment: as above; type: cell-based; settings: Homo sapiens, Kasumi cells, 24 h
Method: as §2, §3, §4

[12] = system: K562 (chronic myeloblastic leukemia); experiment: as above; type: cell-based; settings: Homo sapiens, K562 cells, 24 h
Method: as §2, §3, §4

[13] = system: cleaved caspase-3 in CCRF-CEM cells; experiment: Cleaved caspase-3 by flow cytometry; type: cell-based, human; settings: 12 h of treatment, EC50 of the compounds
Method: as §5

[14] = system: cleaved caspase-3 in Jurkat cells; experiment: Cleaved caspase-3 by flow cytometry; type: cell-based, human; settings: 12 h of treatment, EC50 of the compounds
Method: as §5

[15] = molecular target: T2, cathepsin L; experiment: Cathepsin L inhibition kinetics and mechanism; type: biochemical; settings: Cat L; for Mec. (mechanism of inhibition): SLNC = simple linear non-competitive, SLC = simple linear competitive
Method: as §6

[16] = system: CCRF-CEM cells; experiment: Cytochrome c release, confocal colocalization; type: cell-based, human; settings: CCRF-CEM lineage after treatment; control cells 25–35%
Method: The release of cytochrome c from the mitochondria was estimated by using double-labeled confocal cell imaging with MitoTracker Green (Invitrogen, Waltham, MA, USA) and a cytochrome c antibody. Jurkat and CCRF-CEM cells (2 × 10^5 cells/mL) were incubated with C9 and C21 compounds for 12 h. Then, cells were incubated with 100 nM MitoTracker Green (Invitrogen, Waltham, MA, USA) for 30 min at 37 °C. Following this, cells were washed with PBS, fixed with 2% paraformaldehyde in PBS for 30 min and permeabilized with 0.01% saponin in PBS for 15 min. Then, the cells were incubated with a monoclonal rabbit antibody against human cytochrome c at 1:100 dilutions (0.5 μg/mL, Cell Signaling, Danvers, MA, USA) for 2 h at room temperature. […] Alexa Fluor 647 was excited using a HeNe laser (λEx = 633 nm) and its emissions were detected at 650–700 nm. MitoTracker Green was excited using an argon laser (λEx = 488 nm) and its emissions were detected at 500–550 nm. DAPI was excited with a diode laser (λEx = 405 nm) and its emissions were detected at […]. […]
The quantitative evaluation of colocalization was performed by using the percentage of colocalized between channels, which correspond to the pixels with red fluorescence and green or blue fluorescence. […] The colocalization coefficient was calculated using the Imaris software.

[17] = system: T-cell lymphomas lineages; set-up: method as in PMID 24225136; settings: cited from earlier work

T2 sequence (P07711 114-333): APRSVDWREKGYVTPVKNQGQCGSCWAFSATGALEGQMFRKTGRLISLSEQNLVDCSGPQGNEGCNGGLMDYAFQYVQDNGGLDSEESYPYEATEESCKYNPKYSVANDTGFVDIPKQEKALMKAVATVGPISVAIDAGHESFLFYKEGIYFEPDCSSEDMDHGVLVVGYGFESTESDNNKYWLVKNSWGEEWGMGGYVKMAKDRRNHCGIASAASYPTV

| SMILES | IC50 [1] [µM] | EC50 [3] [µM] | EC50 [4] [µM] | IC50 [5] [µM] | PARP-1 cleavage [6] | PARP-1 cleavage [7] | Ki [8] [µM] | cytotoxicity to PBMCs compared with vinblastine [9] | sensitivity of PBMCs compared with the tumor lineages [9] | EC50 [10] [µM] | EC50 [11] [µM] | EC50 [12] [µM] | cleaved caspase-3 [13] | cleaved caspase-3 [14] | Ki [15] [µM] | αKi [15] [µM] | colocalization coefficient between the green and red channel [16] | also measured |
| --- | --- | --- | --- | --- | --- | --- | --- | --- | --- | --- | --- | --- | --- | --- | --- | --- | --- | --- |
| CCCCCCCCCCCCCCCCOP(=O)([O-])OCC[N+](C)(C)C [Compound 1, hexadecyl 2-(trimethylazaniumyl)ethyl phosphate, reference compound] | 7.5 ± 0.1 | 186 ± 12 | 120 ± 3 | 10.5 ± 0.2 |  |  |  |  |  |  |  |  |  |  |  |  |  | EC50 ([2]; against the studied lines): 120 to 200 µM |
| CC(=O)OCCCc1cn(CCCCCCCCCCCCOS(C)(=O)=O)nn1 [Compound 21] | 3.9 ± 0.2 | 77 ± 1.5 | 60 ± 2 | 1.6 ± 0.1 | did not occur | observed | 27.4 ± 1.2 | less cytotoxic than vinblastine | significantly less sensitive | 96 ± 1 | > 140 | > 140 | less intense | increase | 9.72 ± 1.23 | 10.47 ± 1.17 | 30–40% | α [8]: 1.6; αKi [8]: 43.9 ± 1.7 µM; Mec. (mechanism of inhibition) ([8]; listed as C21): simple linear noncompetitive inhibition and SLNC; Mec. (mechanism of inhibition) ([15]; listed as C21): simple linear noncompetitive inhibition and SLNC; α ([15]; listed as C21): 1 |
| CCCCCCCC/C=C\CCCCCCCCCCCCOP(=O)([O-])OCC[N+](C)(C)C [erufosine] |  |  |  |  |  |  |  |  |  |  |  |  |  |  |  |  |  | EC50 [17]: ~60 µM |
| OCCCc1cn(CCCCCCCCCCCCI)nn1 [Compound 9] | 3.5 ± 0.2 | 63 ± 1 | 40 ± 1.2 | 1.3 ± 0.1 | did not occur | observed | 15.3 ± 0.6 | less cytotoxic than vinblastine | significantly less sensitive | 71 ± 0.8 | > 140 | > 140 | less intense | increase | 3.56 ± 0.26 | 3.66 ± 0.07 | 30–40% | EC50 ([2]; in Jurkat and CCRF-CEM lineages): 40 to 70 µM; Mec. (mechanism of inhibition) ([8]; listed as C9): simple linear competitive inhibition and SLC; Mec. (mechanism of inhibition) ([15]; listed as C9): simple linear noncompetitive inhibition and SLNC; α ([15]; listed as C9): 1 |
